For this assay, the target named is T1, N-type calcium channel (NTCC) (Homo sapiens, UniProt Q00975).
T1 construct: host or cells: IMR32 cells differentiated with dibutyryl cAMP and bromodeoxyuridine
In words: FLIPR calcium mobilization assay for N-type calcium channel. The class given is cell-based. Particulars: calcium mobilization in vitro assay; differentiated IMR32 cells. How it is done: Unless noted otherwise, cell culture reagents were purchased from Mediatech of Herndon, Md. IMR32 cells (American Type Culture Collection, ATCC, Manassas, Va.) were routinely cultured in growth medium consisting of minimum essential medium containing 10% fetal bovine serum (FBS, Hyclone, Logan, Utah), 100 U/mL penicillin, 100 μg/mL streptomycin, 2 mM L-glutamine, 1 mM sodium pyruvate, and 1× MEM non-essential amino acids. 80-90% confluent flasks of cells were differentiated using the following differentiation medium: Growth medium plus 1 mM dibutyryl cyclic AMP (Sigma, St. Louis, Mo.), and 2.5 μM bromodeoxyuridine (Sigma). Cells were differentiated for 8 days by replacing differentiation medium every 2-3 days.
FLIPR Calcium Mobilization Assay for N-Type Calcium Channel.
One day prior to performing this assay, differentiated IMR32 cells were treated with 1× CellStripper, and seeded on poly-D-lysine-coated 96-well clear-bottom black plates (Becton Dickinson, Franklin Lakes, N.J.) at 200,000 cells/well. On the day of the assay, the cell plates were washed with IMR32 buffer (127 mM NaCl, 1 mM KCl, 2 mM MgCl2, 700 μM NaH2PO4, 5 mM CaCl2, 5 mM NaHCO3, 8 mM HEPES, 10 mM glucose, pH 7.4), then pre-stimulated with KCl and loaded as follows: 0.05 mL of IMR32 buffer, 0.05 mL of each compound tested diluted in IMR32 buffer containing 20 μM nitrendipine (Sigma), and 0.1 mL KCl dissolved in IMR32 buffer, plus Fluo-4 were added (3 μM final concentration, Molecular Probes, Eugene, Oreg.). Final test compound concentrations ranged from about 846 pM to about 17 μM, final nitrendipine concentration was 5 μM, and final KCl concentration was 90 mM. After 1 hour, the cells were washed twice with 0.05 mL of each compound is tested in nitrendipine-containing IMR32 buffer (no KCl or Fluo-4), and then replaced with 0.1 mL of each compound tested in nitrendipine-containing IMR32 buffer. Plates were then transferred to a Fluorimetric Imaging Plate Reader (FLIPR^96, Molecular Devices, Inc., Sunnyvale, Calif.) for assay. The FLIPR measured basal Fluo-4 fluorescence for 315 seconds (i.e., 5 minutes and 15 seconds), then added 0.1 mL KCl agonist dissolved in IMR32 buffer and measured fluorescence for another 45 seconds. Final test compound concentrations on the cells after FLIPR read ranged from about 846 pM to about 17 μM, final nitrendipine concentration was 5 μM, and final KCl concentration was 90 mM. Data were collected over the entire time course and analyzed using Excel, Graph Pad Prism (version 3.02, Graph Pad, San Diego, Calif.), or an in-house non-linear regression analysis software.

Some results are limits rather than exact numbers.

T1 sequence (Q00975 whole entry): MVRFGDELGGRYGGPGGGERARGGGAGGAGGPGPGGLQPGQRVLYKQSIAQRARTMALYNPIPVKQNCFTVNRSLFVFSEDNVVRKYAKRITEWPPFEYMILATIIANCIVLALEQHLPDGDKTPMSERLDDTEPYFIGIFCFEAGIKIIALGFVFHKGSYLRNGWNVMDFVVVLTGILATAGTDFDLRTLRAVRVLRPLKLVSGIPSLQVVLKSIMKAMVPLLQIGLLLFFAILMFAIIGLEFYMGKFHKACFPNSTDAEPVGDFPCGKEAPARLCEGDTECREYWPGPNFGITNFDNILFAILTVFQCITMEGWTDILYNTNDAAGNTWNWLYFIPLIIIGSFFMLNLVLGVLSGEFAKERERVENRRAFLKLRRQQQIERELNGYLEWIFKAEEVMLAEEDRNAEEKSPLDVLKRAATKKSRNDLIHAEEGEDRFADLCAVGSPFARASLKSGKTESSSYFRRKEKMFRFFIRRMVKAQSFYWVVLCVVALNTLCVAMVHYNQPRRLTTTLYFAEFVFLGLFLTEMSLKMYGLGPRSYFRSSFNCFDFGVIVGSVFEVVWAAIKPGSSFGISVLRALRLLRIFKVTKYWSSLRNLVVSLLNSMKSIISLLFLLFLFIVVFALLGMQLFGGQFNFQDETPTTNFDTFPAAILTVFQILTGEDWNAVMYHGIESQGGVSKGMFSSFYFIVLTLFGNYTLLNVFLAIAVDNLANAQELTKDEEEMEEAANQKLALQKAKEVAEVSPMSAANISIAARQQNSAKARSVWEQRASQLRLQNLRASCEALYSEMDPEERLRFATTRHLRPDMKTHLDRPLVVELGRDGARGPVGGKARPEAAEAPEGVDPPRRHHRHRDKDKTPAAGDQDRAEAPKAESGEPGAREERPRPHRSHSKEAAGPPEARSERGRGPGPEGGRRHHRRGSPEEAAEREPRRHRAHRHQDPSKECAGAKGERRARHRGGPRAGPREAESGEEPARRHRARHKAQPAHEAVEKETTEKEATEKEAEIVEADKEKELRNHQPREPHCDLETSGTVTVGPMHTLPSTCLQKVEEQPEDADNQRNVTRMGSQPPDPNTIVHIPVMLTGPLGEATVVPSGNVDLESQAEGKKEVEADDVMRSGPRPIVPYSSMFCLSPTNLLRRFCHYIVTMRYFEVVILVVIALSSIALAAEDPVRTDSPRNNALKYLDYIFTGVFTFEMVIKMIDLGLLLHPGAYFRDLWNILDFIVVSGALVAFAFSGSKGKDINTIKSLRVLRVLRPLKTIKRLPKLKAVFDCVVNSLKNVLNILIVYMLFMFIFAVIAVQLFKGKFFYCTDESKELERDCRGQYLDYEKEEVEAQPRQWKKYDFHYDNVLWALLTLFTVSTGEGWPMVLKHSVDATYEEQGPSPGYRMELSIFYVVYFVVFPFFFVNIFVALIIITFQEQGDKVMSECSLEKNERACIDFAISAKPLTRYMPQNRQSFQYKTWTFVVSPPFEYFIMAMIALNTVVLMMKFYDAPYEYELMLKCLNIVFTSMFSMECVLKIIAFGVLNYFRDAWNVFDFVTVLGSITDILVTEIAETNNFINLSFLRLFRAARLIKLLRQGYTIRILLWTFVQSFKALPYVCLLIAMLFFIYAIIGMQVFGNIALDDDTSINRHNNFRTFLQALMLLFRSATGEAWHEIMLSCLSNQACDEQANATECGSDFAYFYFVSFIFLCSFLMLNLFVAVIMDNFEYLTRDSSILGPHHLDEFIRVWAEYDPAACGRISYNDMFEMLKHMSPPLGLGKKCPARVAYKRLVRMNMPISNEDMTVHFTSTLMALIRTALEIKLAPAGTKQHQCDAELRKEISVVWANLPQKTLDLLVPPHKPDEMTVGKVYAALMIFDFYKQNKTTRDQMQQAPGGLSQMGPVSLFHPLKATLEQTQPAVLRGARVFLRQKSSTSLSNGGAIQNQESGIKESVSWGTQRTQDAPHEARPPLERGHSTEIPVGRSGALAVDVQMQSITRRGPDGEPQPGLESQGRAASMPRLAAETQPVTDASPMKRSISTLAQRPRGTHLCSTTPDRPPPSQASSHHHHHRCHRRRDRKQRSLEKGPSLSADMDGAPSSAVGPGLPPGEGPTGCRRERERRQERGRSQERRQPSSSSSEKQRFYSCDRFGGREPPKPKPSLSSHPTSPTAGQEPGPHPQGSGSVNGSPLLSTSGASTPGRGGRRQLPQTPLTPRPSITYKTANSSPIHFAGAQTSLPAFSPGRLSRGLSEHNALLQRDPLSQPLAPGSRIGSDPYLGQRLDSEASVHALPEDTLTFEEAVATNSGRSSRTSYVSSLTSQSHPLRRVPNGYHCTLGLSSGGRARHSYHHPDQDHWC
T1 sequence (P54289 25-956 partner limits assumed): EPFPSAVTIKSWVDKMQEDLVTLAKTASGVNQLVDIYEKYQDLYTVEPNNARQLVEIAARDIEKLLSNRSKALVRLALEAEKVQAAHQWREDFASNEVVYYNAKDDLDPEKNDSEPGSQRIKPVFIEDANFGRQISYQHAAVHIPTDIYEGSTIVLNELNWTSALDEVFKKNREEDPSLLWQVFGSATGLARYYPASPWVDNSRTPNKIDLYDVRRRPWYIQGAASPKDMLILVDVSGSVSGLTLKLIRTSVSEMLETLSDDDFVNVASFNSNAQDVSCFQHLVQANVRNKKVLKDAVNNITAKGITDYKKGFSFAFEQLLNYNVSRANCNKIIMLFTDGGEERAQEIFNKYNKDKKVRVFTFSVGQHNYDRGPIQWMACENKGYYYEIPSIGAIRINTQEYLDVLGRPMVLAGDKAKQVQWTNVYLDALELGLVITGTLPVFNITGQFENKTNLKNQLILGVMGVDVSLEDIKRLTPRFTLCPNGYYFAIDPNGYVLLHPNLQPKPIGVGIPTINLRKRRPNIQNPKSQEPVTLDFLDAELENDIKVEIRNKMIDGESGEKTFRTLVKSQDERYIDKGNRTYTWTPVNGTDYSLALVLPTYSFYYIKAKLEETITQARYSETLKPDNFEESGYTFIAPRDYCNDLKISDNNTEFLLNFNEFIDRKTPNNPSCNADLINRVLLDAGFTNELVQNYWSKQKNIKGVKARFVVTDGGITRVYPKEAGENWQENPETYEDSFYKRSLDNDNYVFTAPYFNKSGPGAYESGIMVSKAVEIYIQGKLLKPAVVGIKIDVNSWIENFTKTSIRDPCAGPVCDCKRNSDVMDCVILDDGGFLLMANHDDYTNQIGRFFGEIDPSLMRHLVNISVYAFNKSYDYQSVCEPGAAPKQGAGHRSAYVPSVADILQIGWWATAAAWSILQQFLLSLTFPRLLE
T1 sequence (P54289 957-1103 partner limits assumed): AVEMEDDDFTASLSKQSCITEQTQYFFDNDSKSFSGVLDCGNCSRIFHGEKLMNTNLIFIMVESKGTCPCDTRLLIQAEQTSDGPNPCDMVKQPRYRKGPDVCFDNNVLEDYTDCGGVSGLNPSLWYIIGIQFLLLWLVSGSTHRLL
T1 sequence (P54284 whole entry partner): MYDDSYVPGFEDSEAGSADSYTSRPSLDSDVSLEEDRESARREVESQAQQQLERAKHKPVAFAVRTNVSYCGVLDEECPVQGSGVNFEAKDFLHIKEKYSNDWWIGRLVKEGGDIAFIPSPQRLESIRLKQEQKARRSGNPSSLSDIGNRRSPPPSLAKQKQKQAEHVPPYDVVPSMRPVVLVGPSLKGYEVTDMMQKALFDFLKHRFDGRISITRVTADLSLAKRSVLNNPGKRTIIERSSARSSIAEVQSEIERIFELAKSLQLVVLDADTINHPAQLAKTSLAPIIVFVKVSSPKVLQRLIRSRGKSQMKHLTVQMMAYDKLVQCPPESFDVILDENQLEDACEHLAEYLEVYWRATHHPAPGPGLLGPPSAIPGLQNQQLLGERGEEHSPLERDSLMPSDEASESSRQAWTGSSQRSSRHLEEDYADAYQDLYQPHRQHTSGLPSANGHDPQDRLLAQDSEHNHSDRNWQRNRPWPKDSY

Take `O=C(CN1CCC(N(C2CC2)S(=O)(=O)c2cccc(F)c2)CC1)Nc1ccc(F)cc1` [Compound 46, 2-{4-[Cyclopropyl-(3-fluorobenzenesulfonyl)amino]-piperidin-1-yl}-N-(4-fluorophenyl)acetamide]: the IC50 (in general, the midpoint of a concentration-inhibition curve) was 2030 nM. Regarding `O=C(CN1CCC(N(C2CC2)S(=O)(=O)c2ccccc2)CC1)Nc1ccc(F)cc1` [Compound 48, 2-[4-(Benzenesulfonylcyclopropylamino)-piperidin-1-yl]-N-(4-fluorophenyl)acetamide], the IC50 is 2260 nM. Next, `O=C(CN1CCC(N(C2CC2)S(=O)(=O)c2ccc(Cl)cc2)CC1)Nc1ccc(F)cc1` [Compound 49, 2-{4-[(4-Chlorobenzenesulfonyl)cyclopropylamino]-piperidin-1-yl}-N-(4-fluorophenyl)acetamide]: 1310 nM; `CN(C1CCN(CC(=O)Nc2nc3ccc(F)cc3s2)CC1)S(=O)(=O)c1cccc(C(F)(F)F)c1` [Compound 65]: 2160 nM. Next, `O=C(CN1CCC(N(C2CC2)S(=O)(=O)c2cccc(Cl)c2)CC1)Nc1cc(C(F)(F)F)cc(C(F)(F)F)c1` [Compound 66, N-(3,5-Bis-trifluoromethylphenyl)-2-{4-[(3-chlorobenzenesulfonyl)-cyclopropylamino]-piperidin-1-yl}-acetamide]: 2530 nM; `O=C(CN1CCC(N(C2CC2)S(=O)(=O)c2ccc(Cl)cc2)CC1)Nc1cc(C(F)(F)F)cc(C(F)(F)F)c1` [Compound 67, N-(3,5-Bis-trifluoromethylphenyl)-2-{4-[(4-chlorobenzenesulfonyl)-cyclopropylamino]-piperidin-1-yl}-acetamide]: 4170 nM. Take `CN(C1CCN(CC(=O)Nc2cc(C(F)(F)F)cc(C(F)(F)F)c2)CC1)S(=O)(=O)c1ccccc1` [Compound 68, 2-[4-(Benzenesulfonyl-methyl-amino)-piperidin-1-yl]-N-(3,5-bis-trifluoromethylphenyl)-acetamide]: the half-inhibitory concentration (IC50) turned out to be 1590 nM. Take `Cc1cccc(S(=O)(=O)N(C2CC2)C2CCN(CC(=O)Nc3cc(C(F)(F)F)cc(C(F)(F)F)c3)CC2)c1` [Compound 69, N-(3,5-Bis-trifluoromethylphenyl)-2-{4-[cyclopropyl-(toluene-3-sulfonyl)amino]-piperidin-1-yl}-acetamide]: the IC50 turned out to be 3810 nM.

As for `O=C(CN1CCC(N(C2CC2)S(=O)(=O)c2cccc(C(F)(F)F)c2)CC1)Nc1ccc(C(F)(F)F)cc1C(F)(F)F` [Compound 72, N-(2,4-Bis-trifluoromethylphenyl)-2-{4-[cyclopropyl-(3-trifluoromethylbenzenesulfonyl)amino]-piperidin-1-yl}-acetamide], the IC50 is over 20000 nM. Next, `O=C(CN1CCC(N(C2CC2)S(=O)(=O)c2cccc(C(F)(F)F)c2)CC1)Nc1ccc(Cl)cc1OC(F)(F)F` [Compound 76, N-(4-Chloro-2-trifluoromethoxyphenyl)-2-{4-[cyclopropyl-(3-trifluoromethylbenzenesulfonyl)amino]-piperidin-1-yl}-acetamide]: 1830 nM. The same measure for `O=C(CN1CCC(N(C2CC2)S(=O)(=O)c2cccc(C(F)(F)F)c2)CC1)Nc1cc(C(F)(F)F)ccc1Cl` [Compound 77, N-(2-Chloro-5-trifluoromethylphenyl)-2-{4-[cyclopropyl-(3-trifluoromethylbenzenesulfonyl)amino]-piperidin-1-yl}-acetamide]: 6630 nM; for `COc1ccc(Cl)cc1NC(=O)CN1CCC(N(C2CC2)S(=O)(=O)c2cccc(C(F)(F)F)c2)CC1` [Compound 82, N-(5-Chloro-2-methoxyphenyl)-2-{4-[cyclopropyl-(3-trifluoromethyl-benzenesulfonyl)amino]-piperidin-1-yl}-acetamide]: 3990 nM; for `COc1ccc(C(F)(F)F)cc1NC(=O)CN1CCC(N(C2CC2)S(=O)(=O)c2cccc(C(F)(F)F)c2)CC1` [Compound 83, 2-{4-[Cyclopropyl-(3-trifluoromethylbenzenesulfonyl)amino]-piperidin-1-yl}-N-(2-methoxy-5-trifluoromethylphenyl)-acetamide]: 10000 to 20000 nM. As for `COc1ccc(CN[C@H](C(=O)N2CCC(N(C(C)C)S(=O)(=O)c3cccc(C(F)(F)F)c3)CC2)C(C)C)cc1` [Compound 88a, (S)—N-Isopropyl-N-{1-[2-(4-methoxybenzylamino)-3-methylbutyryl]-piperidin-4-yl}-3-trifluoromethylbenzenesulfonamide], the IC50 amounted to 1730 nM. As for `CC(NCCCn1ccnc1)C(=O)N1CCC(N(C(C)C)S(=O)(=O)c2cccc(C(F)(F)F)c2)CC1` (stereo not drawn) [Compound 90, N-{1-[2-(3-Imidazol-1-yl-propylamino)propionyl]-piperidin-4-yl}-N-isopropyl-3-trifluoromethylbenzenesulfonamide], the IC50 stood at 9560 nM. On to `CCC(NCc1ccccc1)C(=O)N1CCC(N(C(C)C)S(=O)(=O)c2cccc(C(F)(F)F)c2)CC1` (stereo not drawn) [Compound 91, N-[1-(2-Benzylaminobutyryl)-piperidin-4-yl]-N-isopropyl-3-trifluoromethylbenzenesulfonamide], for which the IC50 came to 1150 nM.

On to `CCC(NC1CC1)C(=O)N1CCC(N(C(C)C)S(=O)(=O)c2cccc(C(F)(F)F)c2)CC1` (stereo not drawn) [Compound 92, N-[1-(2-Cyclopropylaminobutyryl)-piperidin-4-yl]-N-isopropyl-3-trifluoromethylbenzenesulfonamide], for which the IC50 was found to be 5270 nM.

For the compound `COCCNCC(=O)N1CCC(N(C(C)C)S(=O)(=O)c2cccc(C(F)(F)F)c2)CC1` [Compound 95, N-Isopropyl-N-{1-[2-(2-methoxy-ethylamino)acetyl]-piperidin-4-yl}-3-trifluoromethylbenzenesulfonamide], the IC50 was determined as 2240 nM. Next, `COc1ccc(CNCC(=O)N2CCC(N(C3CC3)S(=O)(=O)c3ccccc3)CC2)cc1` [Compound 97, N-Cyclopropyl-N-{1-[2-(4-methoxy-benzylamino)acetyl]-piperidin-4-yl}-benzenesulfonamide]: 2360 nM; `O=C(CNCc1ccc(F)cc1)N1CCC(N(C2CC2)S(=O)(=O)c2ccccc2)CC1` [Compound 98, N-Cyclopropyl-N-{1-[2-(4-fluorobenzylamino)acetyl]-piperidin-4-yl}-benzenesulfonamide]: 2670 nM. Next, `CC(C)CNC(=O)CCN1CCC(N(C(C)C)S(=O)(=O)c2cccc(C(F)(F)F)c2)CC1` [Compound 107c, N-Isobutyl-3-{4-[isopropyl-(3-trifluoromethylbenzenesulfonyl)amino]-piperidin-1-yl}-propionamide]: 2000 nM. Regarding `NCCN1CCC(N(C2CC2)S(=O)(=O)c2cccc(C(F)(F)F)c2)CC1` [Compound 114, N-[1-(2-Aminoethyl)-piperidin-4-yl]-N-cyclopropyl-3-trifluoromethylbenzenesulfonamide], the IC50 came to 1490 nM.

As to `O=C(CC(=O)N1CCC(NS(=O)(=O)c2cccc(C(F)(F)F)c2)CC1)Nc1ccc(F)cc1F` [Compound 115, N-(2,4-Difluorophenyl)-3-oxo-3-[4-(3-trifluoromethylbenzenesulfonylamino)-piperidin-1-yl]-propionamide], the IC50 came out at 3180 nM. Take `O=C(CN1CCC(NS(=O)(=O)c2cccc(C(F)(F)F)c2)CC1)Nc1ccc(F)cc1` [Compound 116, N-(4-Fluorophenyl)-2-[4-(3-trifluoromethylbenzenesulfonylamino)-piperidin-1-yl]-acetamide]: the IC50 came out at 1240 nM.

For `O=C(CN1CCC(NS(=O)(=O)c2cccc(C(F)(F)F)c2)CC1)Nc1ccc(C(F)(F)F)c(C(F)(F)F)c1` [N-(3,4-bis-trifluoromethylphenyl)-2-{4-[(3-trifluoromethylbenzenesulfonyl)amino]-piperidin-1-yl}-acetamide], the IC50 turned out to be 1220 nM. Regarding `CC(C)N(C1CCN(C(=O)C(C)(C)N)CC1)S(=O)(=O)c1cccc(C(F)(F)F)c1` [N-[1-(2-amino-2-methyl-propionyl)-piperidin-4-yl]-N-isopropyl-3-trifluoromethylbenzenesulfonamide], the IC50 was 9390 nM. With `CC(C)N(C1CCN(C(=O)C(N)Cc2csc3ccccc23)CC1)S(=O)(=O)c1cccc(C(F)(F)F)c1` (stereo not drawn) [N-[1-(2-amino-3-benzo[b]thiophen-3-yl-propionyl)-piperidin-4-yl]-N-isopropyl-3-trifluoromethyl-benzenesulfonamide], the IC50 worked out at 470 nM.

These data come from patent publication US8791264B2 (Purdue Pharma L.P., priority 2006, dated 2014).
